# From US10426850B2, “Collagen mimetic peptides for targeting collagen strands for in vitro and in vivo imaging and therapeutic use” (The Johns Hopkins University, priority 2011, dated 2019)
# Columns and labels:
# [1] = tested on: collagens in fixed tissue sections (skin, cornea, bone); assay: Immunohistochemistry of fixed tissue sections with UV-activated caged CMP; parameters: species or system mouse; details: UV-activated on tissue
# Excerpt: For immunohistochemical staining, anti-collagen I antibody was purchased from Abcam (ab292, Cambridge, Mass.); bovine serum albumin (BSA), goat serum, and Triton X-100 were purchased from Sigma-Aldrich; DAPI was obtained from Roche Applied Science (Indianapolis, Ind.); Alexa Fluor® 594 F(ab′)2 fragment of goat anti-rabbit IgG and Prolong® Gold antifade reagent were purchased from Life Technologies. The skin and cornea tissues were harvested from a 23 month-old wild-type C57BL/6 mouse. The tissues were fixed with 4% paraformaldehyde in PBS solution (pH 7.4) for 1 hour and cryopreserved in Tissue-Tek O.C.T. medium (Sakura Finetek, Torrance, Calif.). Cryosections of 8 μm thickness were obtained and mounted onto charged glass slides. Paraffin embedded mouse bone sections were a kind gift from Dr. Catherine Foss and Dr. Collin Torok at Johns Hopkins University School of Medicine. The leg containing the tibia bone was harvested from a 12-week-old female athymic nu/nu mouse. The muscle tissues were manually trimmed, and the bone was fixed in 10% neutral-buffered formalin at room temperature overnight. The bone was demineralized in Decal Stat solution (Decal Chemical, Suffern, N.Y.) for 3 hr at room temperature, embedded in paraffin and sectioned to 4 μm at Tissue Microarray Facility of Johns Hopkins University. The formalin-fixed normal and fibrotic rat livers were a kind gift from Jie Yan and Yuzhan Kang at National University of Singapore. The tissues were sectioned to 10 μm thickness on glass slides and stained by Masson trichrome by the Reference Histology Laboratory, Johns Hopkins Medical Institutions.
# Immunohistochemistry. Frozen fixed tissue slides were allowed to equilibrate to room temperature and dried under air flow. The tissue sections were permeabilized by cold methanol at −20° C. for 10 min, and incubated in 1×PBS solution. The paraffin embedded bone sections were de-paraffinized by two cycles of 5 min xylene wash, two cycles of 5 min 100% ethanol wash, and two cycles of 5 min 95% ethanol wash followed by soaking in 1×PBS solutions. […]
# [2] = tested on: collagen types I, II and IV; assay: SDS-PAGE staining by heat activated fluorescent CMP, collagen types; type: binding, rat (I), bovine (II), mouse (IV); details: 6 μM, 2 μg protein per lane
# Excerpt: Acid soluble rat-tail type I collagen, bovine type II collagen, and mouse type IV collagen were purchased from BD Bioscience (San Jose, Calif.). Complement component C1q from human serum, fibronectin from bovine plasma, and laminin from Engelbreth-Holm-Swarm murine sarcoma basement membrane were purchased from Sigma-Aldrich. ProMMP-1, and p-aminophenylmercuric acetate were acquired from EMD millipore. Human umbilical vein endothelial cells (HUVECs) and EGM-2 cell growth media were obtained from Lonza (Walkersville, Md.). Precast NuPAGE® Novex 4-12% Bis-Tris Gel (1.0 mm, 12 well), Novex® Sharp unstained protein standard, and SDS-PAGE running buffer, sample buffer, and other SDS-PAGE reagents were purchased from Life Technologies.
# SDS-PAGE staining and imaging. Proteins were resolved on NuPAGE® Novex 4-12% bis-tris gels under denaturating conditions using an XCell SureLock™ Mini-Cell electrophoresis system (Life Technologies). NuPAGE® MOPS SDS running buffer containing 50 mM MOPS, 50 mM Tris Base, 0.1% SDS, and 1 mM EDTA (pH 7.7) was used. Protein samples were heated to 85° C. in NuPAGE® LDS sample denaturing buffer for 10 min before the gel loading. Unless specified otherwise, 2 μg of protein was used for each lane. The gels were run at 200 V for 50-60 min. Reducing conditions were used only for gels carrying type IV collagen, HUVECs lysate, and C1q, for which NuPAGE® reducing agent was mixed with the protein samples, and 500 μL of NuPAGE® antioxidant was added to the cathode buffer before loading. After electrophoresis, the gels were washed by deionized water briefly three times to remove the remaining SDS. […] The fluorescence intensities of the protein bands were quantified using GE ImageQuant™ TL software. After fluorescence imaging, all gels were further stained with coomassie brilliant blue (CB) G-250 (Bio-Rad) for 2-3 hr followed by washing, and imaging under white light illumination using a Gel Doc EQ system (BioRad).
Substance,staining of fixed mouse skin and cornea sections [1],"staining of demineralized, fixed, paraffin embedded mouse tibia bone sections ([1]; data not shown)",staining of collagen bands [2],staining of collagen bands ([2]; listed as CFSG9P9O9)
CF-GGG-(GPO)9 [CF(GPO)9],effectively stained,strong,"binds to collagen types I, II and IV",
"CF-GGG-PGOGPGPOPOGOGOPPGOOPGGOOPPG [CF^SG9P9O9, reference compound]",no discernible binding,,virtually no binding affinity to the collagen bands,revealed no collagen bands
